Literature values in patent US8637672B2 (Deciphera Pharmaceuticals, LLC, priority 2010, dated 2014).
pIC50: −log10 of the molar value.

Target: VEGFR-2 (KDR kinase) (Homo sapiens, UniProt P35968, DEL940-989/E990V)
Conditions: values published in the '188/'556 applications; cited from earlier work

VEGFR-2 (KDR kinase), sequence (P35968 with tags, fused parts or gaps DEL940-989/E990V): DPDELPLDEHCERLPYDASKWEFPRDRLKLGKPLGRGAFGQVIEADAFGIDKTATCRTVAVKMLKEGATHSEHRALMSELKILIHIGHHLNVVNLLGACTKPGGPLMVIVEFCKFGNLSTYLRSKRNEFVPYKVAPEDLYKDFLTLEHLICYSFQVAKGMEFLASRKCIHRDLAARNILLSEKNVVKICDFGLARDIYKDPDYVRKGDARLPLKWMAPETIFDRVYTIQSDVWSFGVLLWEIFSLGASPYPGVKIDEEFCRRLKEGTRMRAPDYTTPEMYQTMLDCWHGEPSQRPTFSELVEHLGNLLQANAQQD

## CN1CCN(C2CCN(C(=O)Nc3cc(Oc4ccc(NC(=O)C5(C(=O)Nc6ccc(F)cc6)CC5)c(F)c4)ccn3)CC2)CC1 [Compound F]
  pIC50: 6.62
